Assay results: ChEMBL document CHEMBL3045810, “Synthesis and evaluation of 4-(substituted)-acetylamino-3-mercapto-5-(4-substituted) phenyl-1,2,4-triazole derivatives as antimicrobial agents” (2012)
Calls of active or inactive are those of the source. The calls are words filed in the database; no cut-off is given here.

How the values were obtained:
Candida albicans [1] = assay: Antifungal activity against Candida albicans MTCC 227 at 50 ug/ml by paper disk diffusion method; assay type: functional; details: read-out: DIZ
Candida albicans [2] = assay: Antifungal activity against Candida albicans MTCC 227 at 30 ug/ml by paper disk diffusion method; assay type: functional; details: read-out: DIZ
Staphylococcus aureus [3] = assay: Bactericidal activity against Staphylococcus aureus ATCC 25923; assay type: functional, organism-based
Aspergillus niger [4] = assay: Antifungal activity against Aspergillus niger MTCC 3323 at 50 ug/ml by paper disk diffusion method; assay type: functional; details: read-out: DIZ
Candida albicans [5] = assay: Fungicidal activity against Candida albicans MTCC 227; assay type: functional, organism-based
Aspergillus niger [6] = assay: Antifungal activity against Aspergillus niger MTCC 3323 at 30 ug/ml by paper disk diffusion method; assay type: functional; details: read-out: DIZ
Staphylococcus aureus [7] = assay: Antibacterial activity against Staphylococcus aureus ATCC 25923 at 70 ug/ml after 24 hr by paper disk diffusion method; assay type: functional; details: ATCC 25923, 24 h, read-out: DIZ
Fusarium oxysporum [8] = assay: Antifungal activity against Fusarium oxysporum MTCC 2087 at 50 ug/ml by paper disk diffusion method; assay type: functional; details: read-out: DIZ
Staphylococcus aureus [9] = assay: Antibacterial activity against Staphylococcus aureus ATCC 25923 at 30 ug/ml after 24 hr by paper disk diffusion method; assay type: functional; details: ATCC 25923, 24 h, read-out: DIZ
Candida albicans [10] = assay: Antifungal activity against Candida albicans MTCC 227 at 70 ug/ml by paper disk diffusion method; assay type: functional; details: read-out: DIZ
Escherichia coli [11] = assay: Antibacterial activity against Escherichia coli ATCC 8793 at 50 ug/ml after 24 hr by paper disk diffusion method; assay type: functional; details: ATCC 8793, 24 h, read-out: DIZ
Bacillus subtilis [12] = assay: Antibacterial activity against Bacillus subtilis ATCC 6633 at 50 ug/ml after 24 hr by paper disk diffusion method; assay type: functional; details: ATCC 6633, 24 h, read-out: DIZ
Fusarium oxysporum [13] = assay: Fungicidal activity against Fusarium oxysporum MTCC 2087; assay type: functional, organism-based
Pseudomonas aeruginosa [14] = assay: Antibacterial activity against Pseudomonas aeruginosa ATCC 27853 at 70 ug/ml after 24 hr by paper disk diffusion method; assay type: functional; details: ATCC 27853, 24 h, read-out: DIZ
Fusarium oxysporum [15] = assay: Antifungal activity against Fusarium oxysporum MTCC 2087 at 30 ug/ml by paper disk diffusion method; assay type: functional; details: read-out: DIZ
Staphylococcus aureus [16] = assay: Antibacterial activity against Staphylococcus aureus ATCC 25923 at 50 ug/ml after 24 hr by paper disk diffusion method; assay type: functional; details: ATCC 25923, 24 h, read-out: DIZ
Pseudomonas aeruginosa [17] = assay: Bactericidal activity against Pseudomonas aeruginosa ATCC 27853; assay type: functional, organism-based
Aspergillus niger [18] = assay: Antifungal activity against Aspergillus niger MTCC 3323 at 70 ug/ml by paper disk diffusion method; assay type: functional; details: read-out: DIZ
Aspergillus niger [19] = assay: Fungicidal activity against Aspergillus niger MTCC 3323; assay type: functional, organism-based
Escherichia coli [20] = assay: Antibacterial activity against Escherichia coli ATCC 8793 at 70 ug/ml after 24 hr by paper disk diffusion method; assay type: functional; details: ATCC 8793, 24 h, read-out: DIZ
Bacillus subtilis [21] = assay: Antibacterial activity against Bacillus subtilis ATCC 6633 at 70 ug/ml after 24 hr by paper disk diffusion method; assay type: functional; details: ATCC 6633, 24 h, read-out: DIZ
Escherichia coli [22] = assay: Antibacterial activity against Escherichia coli ATCC 8793 at 30 ug/ml after 24 hr by paper disk diffusion method; assay type: functional; details: ATCC 8793, 24 h, read-out: DIZ
Escherichia coli [23] = assay: Bactericidal activity against Escherichia coli ATCC 8793; assay type: functional, organism-based
Pseudomonas aeruginosa [24] = assay: Antibacterial activity against Pseudomonas aeruginosa ATCC 27853 at 30 ug/ml after 24 hr by paper disk diffusion method; assay type: functional; details: ATCC 27853, 24 h, read-out: DIZ
Pseudomonas aeruginosa [25] = assay: Antibacterial activity against Pseudomonas aeruginosa ATCC 27853 at 50 ug/ml after 24 hr by paper disk diffusion method; assay type: functional; details: ATCC 27853, 24 h, read-out: DIZ
Bacillus subtilis [26] = assay: Bactericidal against Bacillus subtilis ATCC 6633; assay type: functional, organism-based
Bacillus subtilis [27] = assay: Antibacterial activity against Bacillus subtilis ATCC 6633 at 30 ug/ml after 24 hr by paper disk diffusion method; assay type: functional; details: ATCC 6633, 24 h, read-out: DIZ
Fusarium oxysporum [28] = assay: Antifungal activity against Fusarium oxysporum MTCC 2087 at 70 ug/ml by paper disk diffusion method; assay type: functional; details: read-out: DIZ

| Structure (SMILES) | zone of inhibition at 50 µg/mL (Candida albicans [1]) | zone of inhibition at 30 µg/mL (Candida albicans [2]) | Activity (Staphylococcus aureus [3]) | zone of inhibition at 50 µg/mL (Aspergillus niger [4]) | Activity (Candida albicans [5]) | zone of inhibition at 30 µg/mL (Aspergillus niger [6]) | zone of inhibition at 70 µg/mL (Staphylococcus aureus [7]) | zone of inhibition at 50 µg/mL (Fusarium oxysporum [8]) | zone of inhibition at 30 µg/mL (Staphylococcus aureus [9]) | zone of inhibition at 70 µg/mL (Candida albicans [10]) | zone of inhibition at 50 µg/mL (Escherichia coli [11]) | zone of inhibition at 50 µg/mL (Bacillus subtilis [12]) | Activity (Fusarium oxysporum [13]) | zone of inhibition at 70 µg/mL (Pseudomonas aeruginosa [14]) | zone of inhibition at 30 µg/mL (Fusarium oxysporum [15]) | zone of inhibition at 50 µg/mL (Staphylococcus aureus [16]) | Activity (Pseudomonas aeruginosa [17]) | zone of inhibition at 70 µg/mL (Aspergillus niger [18]) | Activity (Aspergillus niger [19]) | zone of inhibition at 70 µg/mL (Escherichia coli [20]) | also measured |
| --- | --- | --- | --- | --- | --- | --- | --- | --- | --- | --- | --- | --- | --- | --- | --- | --- | --- | --- | --- | --- | --- |
| CCCN(CCC)CC(=O)Nn1c(S)nnc1-c1ccc(OC)cc1 | 13.2 mm | 12.5 mm | Active | 15.2 mm | Active | 14 mm | 14.8 mm | 11.1 mm | 12.7 mm | 15.1 mm | 12.2 mm | 11 mm | Active | 14.1 mm | 10.2 mm | 13.2 mm | Active | 17 mm | Active | 14.2 mm | zone of inhibition at 70 µg/mL (Bacillus subtilis [21]): 12.8 mm; zone of inhibition at 30 µg/mL (Escherichia coli [22]): 11.1 mm; Activity (Escherichia coli [23]): Active; zone of inhibition at 30 µg/mL (Pseudomonas aeruginosa [24]): 12.2 mm; zone of inhibition at 50 µg/mL (Pseudomonas aeruginosa [25]): 13.2 mm; Activity (Bacillus subtilis [26]): Active; zone of inhibition at 30 µg/mL (Bacillus subtilis [27]): 10.2 mm; zone of inhibition at 70 µg/mL (Fusarium oxysporum [28]): 12.2 mm |
| Cc1ccc(-c2nnc(S)n2NC(=O)CN(C(C)C)C(C)C)cc1 | 9.16 mm | 8.03 mm | Active | 11 mm | inactive | 10.1 mm | 9.1 mm | 7.17 mm | 7.3 mm | 10.1 mm | 9.2 mm | 8.23 mm | inactive | 10.1 mm | 6.06 mm | 8.2 mm | Active | 12.2 mm | inactive | 10.5 mm | zone of inhibition at 70 µg/mL (Bacillus subtilis [21]): 9.23 mm; zone of inhibition at 30 µg/mL (Escherichia coli [22]): 8.2 mm; Activity (Escherichia coli [23]): Active; zone of inhibition at 30 µg/mL (Pseudomonas aeruginosa [24]): 8.3 mm; zone of inhibition at 50 µg/mL (Pseudomonas aeruginosa [25]): 9.26 mm; Activity (Bacillus subtilis [26]): Active; zone of inhibition at 30 µg/mL (Bacillus subtilis [27]): 7.2 mm; zone of inhibition at 70 µg/mL (Fusarium oxysporum [28]): 8.33 mm |
| CCN(CC)CC(=O)Nn1c(S)nnc1-c1ccc(OC)cc1 | 9.13 mm | 8.1 mm | Active | 10.2 mm | inactive | 9.13 mm | 9.36 mm | 8.21 mm | 7.63 mm | 10.4 mm | 10.1 mm | 8.53 mm | inactive | 10.8 mm | 7.26 mm | 8.33 mm | Active | 11.1 mm | inactive | 11.2 mm | zone of inhibition at 70 µg/mL (Bacillus subtilis [21]): 9.03 mm; zone of inhibition at 30 µg/mL (Escherichia coli [22]): 9.2 mm; Activity (Escherichia coli [23]): Active; zone of inhibition at 30 µg/mL (Pseudomonas aeruginosa [24]): 8.26 mm; zone of inhibition at 50 µg/mL (Pseudomonas aeruginosa [25]): 9.56 mm; Activity (Bacillus subtilis [26]): Active; zone of inhibition at 30 µg/mL (Bacillus subtilis [27]): 7.23 mm; zone of inhibition at 70 µg/mL (Fusarium oxysporum [28]): 9.06 mm |
| CCN(CC)CC(=O)Nn1c(S)nnc1-c1ccc(C)cc1 | 8.7 mm | 7.13 mm | Active | 9.23 mm | inactive | 8.2 mm | 8.2 mm | 6.23 mm | 6.36 mm | 9.23 mm | 8.4 mm | 7.43 mm | inactive | 9 mm | 6.03 mm | 7.4 mm | Active | 10.2 mm | inactive | 9 mm | zone of inhibition at 70 µg/mL (Bacillus subtilis [21]): 8.26 mm; zone of inhibition at 30 µg/mL (Escherichia coli [22]): 7.3 mm; Activity (Escherichia coli [23]): Active; zone of inhibition at 30 µg/mL (Pseudomonas aeruginosa [24]): 7.3 mm; zone of inhibition at 50 µg/mL (Pseudomonas aeruginosa [25]): 8.4 mm; Activity (Bacillus subtilis [26]): Active; zone of inhibition at 30 µg/mL (Bacillus subtilis [27]): 6.4 mm; zone of inhibition at 70 µg/mL (Fusarium oxysporum [28]): 7.33 mm |
| CCCCN(CCCC)CC(=O)Nn1c(S)nnc1-c1ccc(C)cc1 | 12.2 mm | 11.1 mm | Active | 16.2 mm | Active | 15.1 mm | 14 mm | 9.2 mm | 11.1 mm | 13.2 mm | 12.1 mm | 11.2 mm | Active | 14.1 mm | 8.17 mm | 12.1 mm | Active | 18 mm | Active | 13.2 mm | zone of inhibition at 70 µg/mL (Bacillus subtilis [21]): 12.2 mm; zone of inhibition at 30 µg/mL (Escherichia coli [22]): 11.2 mm; Activity (Escherichia coli [23]): Active; zone of inhibition at 30 µg/mL (Pseudomonas aeruginosa [24]): 12.3 mm; zone of inhibition at 50 µg/mL (Pseudomonas aeruginosa [25]): 13.6 mm; Activity (Bacillus subtilis [26]): Active; zone of inhibition at 30 µg/mL (Bacillus subtilis [27]): 10.3 mm; zone of inhibition at 70 µg/mL (Fusarium oxysporum [28]): 11.4 mm |
